According to PubChem BioAssay (NCI):
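Method: 48-hour compound exposure of cells in 96-well plates, five concentrations, linear interpolation of endpoints. TGI is the concentration that stops growth completely.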

Legend:
Assay in all cases: NCI tumour cell line growth inhibition, 48 h
[1] = tested on: 786-0 renal
[2] = tested on: A498 renal
[3] = tested on: A549 NSCLC
[4] = tested on: ACHN renal
[5] = tested on: BT-549 breast
[6] = tested on: CAKI-1 renal
[7] = tested on: CCRF-CEM leukemia
[8] = tested on: COLO 205 colon
[9] = tested on: DU-145 prostate
[10] = tested on: EKVX NSCLC
[11] = tested on: HCC-2998 colon
[12] = tested on: HCT-116 colon
[13] = tested on: HCT-15 colon
[14] = tested on: HOP-62 NSCLC
[15] = tested on: HOP-92 NSCLC
[16] = tested on: HS 578T breast
[17] = tested on: HT29 colon
[18] = tested on: IGROV1 ovarian
[19] = tested on: K-562 leukemia
[20] = tested on: KM12 colon
[21] = tested on: LOX IMVI melanoma
[22] = tested on: M14 melanoma
[23] = tested on: MALME-3M melanoma
[24] = tested on: MCF7 breast
[25] = tested on: MDA-MB-231 breast
[26] = tested on: MDA-MB-435
[27] = tested on: MDA-N
[28] = tested on: MOLT-4 leukemia
[29] = tested on: NCI-H226 lung
[30] = tested on: NCI-H23 lung
[31] = tested on: NCI-H460 lung
[32] = tested on: NCI-H522 lung
[33] = tested on: NCI/ADR-RES ovarian
[34] = tested on: OVCAR-3 ovarian
[35] = tested on: OVCAR-4 ovarian
[36] = tested on: OVCAR-5 ovarian
[37] = tested on: OVCAR-8 ovarian
[38] = tested on: PC-3 prostate
[39] = tested on: RPMI-8226 leukemia
[40] = tested on: RXF 393 renal
[41] = tested on: SF-268 CNS
[42] = tested on: SF-295 CNS
[43] = tested on: SF-539 CNS
[44] = tested on: SK-MEL-2 melanoma
[45] = tested on: SK-MEL-28 melanoma
[46] = tested on: SK-MEL-5 melanoma
[47] = tested on: SK-OV-3 ovarian
[48] = tested on: SN12C renal
[49] = tested on: SNB-19 CNS
[50] = tested on: SNB-75 CNS
[51] = tested on: SR leukemia
[52] = tested on: SW-620 colon
[53] = tested on: T-47D breast
[54] = tested on: TK-10 renal
[55] = tested on: U251 CNS
[56] = tested on: UACC-257 melanoma
[57] = tested on: UACC-62 melanoma
[58] = tested on: UO-31 renal
[59] = tested on: HL-60(TB) leukemia

## CC1(C)[C@@H]2CC[C@@]1(C)CN(CCC[N+](C)(C)C)C2
[1]
  TGI: > 100 µM
[2]
  TGI: > 100 µM
[3]
  TGI: > 100 µM
[4]
  TGI: > 100 µM
[5]
  TGI: > 100 µM
[6]
  TGI: > 100 µM
[7]
  TGI: > 100 µM
[8]
  TGI: > 100 µM
[9]
  TGI: > 100 µM
[10]
  TGI: > 100 µM
[11]
  TGI: > 100 µM
[12]
  TGI: > 100 µM
[13]
  TGI: > 100 µM
[14]
  TGI: > 100 µM
[15]
  TGI: > 100 µM
[16]
  TGI: > 100 µM
[17]
  TGI: > 100 µM
[18]
  TGI: > 100 µM
[19]
  TGI: > 100 µM
[20]
  TGI: > 100 µM
[21]
  TGI: > 100 µM
[22]
  TGI: > 100 µM
[23]
  TGI: > 100 µM
[24]
  TGI: > 100 µM
[25]
  TGI: > 100 µM
[26]
  TGI: > 100 µM
[27]
  TGI: > 100 µM
[28]
  TGI: > 100 µM
[29]
  TGI: > 100 µM
[30]
  TGI: > 100 µM
[31]
  TGI: > 100 µM
[32]
  TGI: > 100 µM
[33]
  TGI: > 100 µM
[34]
  TGI: > 100 µM
[35]
  TGI: > 100 µM
[36]
  TGI: > 100 µM
[37]
  TGI: > 100 µM
[38]
  TGI: > 100 µM
[39]
  TGI: > 100 µM
[40]
  TGI: > 100 µM
[41]
  TGI: > 100 µM
[42]
  TGI: > 100 µM
[43]
  TGI: > 100 µM
[44]
  TGI: > 100 µM
[45]
  TGI: > 100 µM
[46]
  TGI: > 100 µM
[47]
  TGI: > 100 µM
[48]
  TGI: > 100 µM
[49]
  TGI: > 100 µM
[50]
  TGI: > 100 µM
[51]
  TGI: > 100 µM
[52]
  TGI: > 100 µM
[53]
  TGI: > 100 µM
[54]
  TGI: > 100 µM
[55]
  TGI: > 100 µM
[56]
  TGI: > 100 µM
[57]
  TGI: > 100 µM
[58]
  TGI: > 100 µM

## O=c1[nH][nH]c(=O)n1CCCCCCn1c(=O)[nH][nH]c1=O
[1]
  TGI: > 100 µM
[2]
  TGI: > 100 µM
[3]
  TGI: > 100 µM
[5]
  TGI: > 100 µM
[6]
  TGI: > 100 µM
[7]
  TGI: > 100 µM
[8]
  TGI: > 100 µM
[9]
  TGI: > 100 µM
[10]
  TGI: > 100 µM
[11]
  TGI: > 100 µM
[12]
  TGI: > 100 µM
[13]
  TGI: > 100 µM
[59]
  TGI: > 100 µM
[16]
  TGI: > 100 µM
[17]
  TGI: > 100 µM
[19]
  TGI: > 100 µM
[20]
  TGI: > 100 µM
[21]
  TGI: > 100 µM
[22]
  TGI: > 100 µM
[23]
  TGI: > 100 µM
[24]
  TGI: > 100 µM
[25]
  TGI: > 100 µM
[26]
  TGI: > 100 µM
[27]
  TGI: > 100 µM
[28]
  TGI: > 100 µM
[29]
  TGI: > 100 µM
[30]
  TGI: > 100 µM
[31]
  TGI: > 100 µM
[32]
  TGI: > 100 µM
[33]
  TGI: > 100 µM
[34]
  TGI: > 100 µM
[35]
  TGI: > 100 µM
[36]
  TGI: > 100 µM
[37]
  TGI: > 100 µM
[38]
  TGI: > 100 µM
[39]
  TGI: > 100 µM
[40]
  TGI: > 100 µM
[41]
  TGI: > 100 µM
[43]
  TGI: > 100 µM
[44]
  TGI: > 100 µM
[45]
  TGI: > 100 µM
[46]
  TGI: > 100 µM
[47]
  TGI: > 100 µM
[48]
  TGI: > 100 µM
[49]
  TGI: > 100 µM
[50]
  TGI: > 100 µM
[51]
  TGI: > 100 µM
[52]
  TGI: > 100 µM
[53]
  TGI: > 100 µM
[54]
  TGI: > 100 µM
[55]
  TGI: > 100 µM
[56]
  TGI: > 100 µM
[57]
  TGI: > 100 µM
[58]
  TGI: > 100 µM

## CCN1CN(c2ccccc2)C2(CCN(CC3COc4ccccc4O3)CC2)C1=O (configuration not stated)
[1]
  TGI: > 100 µM
[2]
  TGI: 72.5 µM
[3]
  TGI: > 100 µM
[4]
  TGI: 71.2 µM
[5]
  TGI: 34.7 µM
[6]
  TGI: > 100 µM
[7]
  TGI: 83.3 µM
[8]
  TGI: 31.5 µM
[9]
  TGI: > 100 µM
[12]
  TGI: 43.7 µM
[13]
  TGI: 54.2 µM
[59]
  TGI: 45.5 µM
[14]
  TGI: > 100 µM
[16]
  TGI: 60.2 µM
[17]
  TGI: 46.7 µM
[18]
  TGI: > 100 µM
[19]
  TGI: > 100 µM
[20]
  TGI: 36.5 µM
[21]
  TGI: 45.2 µM
[22]
  TGI: 4.99 µM
[23]
  TGI: 36 µM
[24]
  TGI: 77.6 µM
[25]
  TGI: 4.78 µM
[26]
  TGI: 67.2 µM
[27]
  TGI: 6.54 µM
[28]
  TGI: 57.6 µM
[29]
  TGI: 94.1 µM
[30]
  TGI: > 100 µM
[31]
  TGI: 45.4 µM
[32]
  TGI: 40.8 µM
[33]
  TGI: > 100 µM
[34]
  TGI: > 100 µM
[36]
  TGI: > 100 µM
[37]
  TGI: > 100 µM
[38]
  TGI: 79.2 µM
[39]
  TGI: 57.9 µM
[40]
  TGI: 40 µM
[41]
  TGI: > 100 µM
[42]
  TGI: > 100 µM
[43]
  TGI: 33.3 µM
[44]
  TGI: 30.7 µM
[45]
  TGI: 87.3 µM
[46]
  TGI: 32.1 µM
[47]
  TGI: > 100 µM
[48]
  TGI: > 100 µM
[49]
  TGI: > 100 µM
[50]
  TGI: 94 µM
[51]
  TGI: > 100 µM
[52]
  TGI: > 100 µM
[53]
  TGI: 67.4 µM
[54]
  TGI: > 100 µM
[55]
  TGI: > 100 µM
[56]
  TGI: > 100 µM
[57]
  TGI: 73.4 µM
[58]
  TGI: 76.6 µM
